Data reported in US20230015949A1, “NEISSERIA TREATMENT USING CANNABINOIDS” (priority 2019, published 2023).
Converted amounts (≈) assume the structure as drawn. “Also recorded” adds a separate entry of the source. Where two headings read alike, the source gives them in different places.

Tests used:
[1] = system: Staphylococcus aureus ATCC 29213; test: Broth microdilution MIC assay, quality control strain (Example 2); format: cell-based; settings: ATCC29213, S. aureus ATCC 29213 (QC), CAMHB
Procedure: (§1) Following incubation, colonies were harvested from these plates and cell suspensions prepared and frozen at −80° C. with a cryoprotectant. Prior to testing, N. gonorrhoeae isolates were streaked onto Chocolate Agar [Becton Dickinson, (BD), Sparks, Md.; Lot No. 922807]; Staphylococcus aureus ATCC 29213 tested for quality control (QC) purposes was streaked onto Trypticase Soy Agar with 5% Sheep Blood (TSA II; BD; Lot No. 9219399).
Cation-adjusted Mueller Hinton broth (CAMHB; BD; Lot No. 9019592) was used for MIC testing of S. aureus ATCC 29213 for QC purposes.
(§2) MIC values were determined using a broth microdilution procedure described by CLSI (1, 2). Automated liquid handlers (Multidrop 384, Labsystems, Helsinki, Finland; Biomek 2000 and Biomek FX, Beckman Coulter, Fullerton Calif.) were used to conduct serial dilutions and liquid transfers.
(§3) To prepare the drug mother plates, which would provide the serial drug dilutions for the replicate daughter plates, the wells of columns 2 through 12 of standard 96-well microdilution plates (Costar 3795) were filled with 150 μl of the designated diluent for each row of drug. The test articles and comparator compounds (300 μl at 100× the highest concentration to be tested) were dispensed into the appropriate wells in column 1. The Biomek 2000 was then used to make 2-fold serial dilutions in the mother plates from column 1 through column 11. The wells of column 12 contained no drug and served as the organism growth control wells for the assay.
(§4) The daughter plates were loaded with 190 μL per well of the appropriate test medium for the tested organism using the Multidrop 384. The daughter plates were completed on the Biomek FX instrument which transferred 2 μL of drug solution from each well of a mother plate to the corresponding well of each daughter plate in a single step. Daughter plates for the testing of anaerobes were allowed to pre-reduce in the Bactron II anaerobe chamber for 2 hr prior to inoculation.
A standardized inoculum of each test organism was prepared per CLSI methods (1, 2). The inoculum for each organism was dispensed into sterile reservoirs divided by length (Beckman Coulter), and the Biomek 2000 was used to inoculate the plates. Daughter plates were placed on the Biomek 2000 work surface in reverse orientation so that inoculation took place from low to high drug concentration. Anaerobic organisms were inoculated by hand in the Bactron II anaerobic chamber. Bacterial plates were then inoculated with 10 μL of the inoculum resulting in a final cell density of approximately 5×10^5 CFU/mL.
Plates were stacked 3 to 4 high, covered with a lid on the top plate and placed in plastic bags. […] The MIC was read and recorded as the lowest concentration of drug that inhibited visible growth of the organism.

Neisseria gonorrhoeae = test: Broth microdilution MIC assay, 30 isolates (Example 2); format: cell-based
Procedure: In this study, the in vitro spectrum of activity of CBD was determined against 30 isolates comprised of reference strains from the WHO, isolates from the CDC antibiotic resistance bank, and clinical isolates from the Micromyx (MMX) repository, with different resistance phenotypes. Assays were conducted following guidelines recommended by the Clinical and Laboratory Standards Institute (CLSI; 1, 2) with the exception that broth microdilution was used instead of agar dilution.
Stock solutions of all compounds were prepared on the day of testing using solvents recommended by CLSI. Stock solutions of all compounds were made at 101× the final testing concentration. CBD was supplied by Cerilliant (Round Rock, Tex.) as a 1 mg/mL methanolic solution which was stored at −20° C. after receipt. Prior to testing, using a 5 mL aliquot of the CBD methanolic solution, the methanol was dried off and the residual CBD was resuspended in 774 μL DMSO resulting in a 6.464 mg/mL solution.
The test organisms evaluated in this study consisted of Neisseria gonorrhoeae isolates from the Micromyx repository and reference isolates from the American Type Culture Collection (ATCC; Manassas, Va.), Centers for Disease Control and Prevention (CDC; Atlanta, Ga.) or the National Collection of Type Cultures (NCTC; Public Health England, Salisbury, UK). Upon initial receipt at Micromyx, the organisms were sub-cultured onto an appropriate agar medium.
as §1
For N. gonorrhoeae, a modified medium described by the ATCC as capable of supporting the growth of N. gonorrhoeae (Neisseria peptone medium) was used for the broth microdilution MIC assay. This medium contained 15 g Oxoid Special Peptone (Lot No. 1280296; Oxoid, Hampshire, UK), 1 g corn starch (Lot No. AD-13344-14; Ward's Science; Rochester, N.Y.), 5 g NaCl (Lot No. 57897; VWR, Radnor, Pa.), 4 g K2HPO4 (Lot No. SLBT7061; Sigma), and 1 g KH2PO4 (Lot No. SLBC1921V; Sigma). After autoclaving, the medium was centrifuged at 5,000×g for 10 min, the supernatant was passed through a 0.45 μm filter, and IsoVitaleX supplement (Lot No. 8323954; BD) was added at 1% (v/v).
as §2, §3, §4

[2] = 30 isolates of N. gonorrhoeae, broth microdilution, MIC distribution
[3] = 30 isolates, broth dilution assay, MIC distribution (Table 6)

C=C(C)C1CCC(C)=CC1c1c(O)cc(CCCCC)cc1O (stereo not drawn) [CBD, 2-[3-methyl-6-(1-methylethenyl)-2-cyclohexen-1-yl]-5-pentyl-1,3-benzenediol]
MIC [1]: 0.5 µg/mL (≈ 1.59 µM) | Effect of the resistance phenotype of the isolate on activity (Neisseria gonorrhoeae; 30 isolates of N. gonorrhoeae with different resistance phenotypes): not affected by the resistance phenotype of the isolate; also recorded: independent of the resistance phenotype of the tested isolate | Number of isolates at MIC value 0.015 μg/mL (Neisseria gonorrhoeae; [2]): 0 | Number of isolates at MIC value 0.03 μg/mL (Neisseria gonorrhoeae; [2]): 0 | Number of isolates at MIC value 0.06 μg/mL (Neisseria gonorrhoeae; [2]): 0 | Number of isolates at MIC value 0.5 μg/mL (Neisseria gonorrhoeae; [2]): 3 | Number of isolates at MIC value 1 μg/mL (Neisseria gonorrhoeae; [2]): 10 | Number of isolates at MIC value 2 μg/mL (Neisseria gonorrhoeae; [2]): 15 | Number of isolates at MIC value 4 μg/mL (Neisseria gonorrhoeae; [2]): 0 | Number of isolates at MIC value 8 μg/mL (Neisseria gonorrhoeae; [2]): 1 | Number of isolates at MIC value >8 μg/mL (Neisseria gonorrhoeae; [2]): 1 | Number of isolates at MIC value >32 μg/mL (Neisseria gonorrhoeae; [2]): 1 | Number of isolates at MIC value […] (Neisseria gonorrhoeae; [2]): 0 | Number of isolates at MIC 0.08 μg mL^−1 (Neisseria gonorrhoeae; [3]): 0 | Number of isolates at MIC ≤0.004 μg mL^−1 (Neisseria gonorrhoeae; [3]): 0 | MIC (Neisseria gonorrhoeae; Neisseria gonorrhoeae, ATCC49226, N. gonorrhoeae ATCC 49226 (QC), broth microdilution, read-out: MIC): 2 µg/mL (≈ 6.36 µM) | MIC (Neisseria gonorrhoeae; Neisseria gonorrhoeae, N. gonorrhoeae CDC 0165 (CIP-R, AZI MIC 1), broth microdilution, read-out: MIC): 8 µg/mL (≈ 25.4 µM) | MIC (Neisseria gonorrhoeae; Neisseria gonorrhoeae, N. gonorrhoeae CDC 0166 (CIP-R, AZI MIC 1), broth microdilution, read-out: MIC): 2 µg/mL (≈ 6.36 µM) | MIC (Neisseria gonorrhoeae; Neisseria gonorrhoeae, N. gonorrhoeae CDC 0167 (CIP-S, AZI MIC 8), broth microdilution, read-out: MIC): 1 µg/mL (≈ 3.18 µM) | MIC (Neisseria gonorrhoeae; Neisseria gonorrhoeae, N. gonorrhoeae CDC 0172 (CIP-R, AZI MIC 0.5), broth microdilution, read-out: MIC): 2 µg/mL (≈ 6.36 µM) | MIC (Neisseria gonorrhoeae; Neisseria gonorrhoeae, N. gonorrhoeae CDC 0175 (CIP-S, AZI MIC 16), broth microdilution, read-out: MIC): 2 µg/mL (≈ 6.36 µM) | MIC (Neisseria gonorrhoeae; Neisseria gonorrhoeae, N. gonorrhoeae CDC 0177 (CIP-S, AZI MIC 2), broth microdilution, read-out: MIC): 2 µg/mL (≈ 6.36 µM) | MIC (Neisseria gonorrhoeae; Neisseria gonorrhoeae, N. gonorrhoeae CDC 0181 (CIP-S, AZI MIC 256), broth microdilution, read-out: MIC): 1 µg/mL (≈ 3.18 µM) | MIC (Neisseria gonorrhoeae; Neisseria gonorrhoeae, N. gonorrhoeae CDC 0194 (CRO-NS, CIP-S, AZI MIC 0.5), broth microdilution, read-out: MIC): 2 µg/mL (≈ 6.36 µM) | MIC (Neisseria gonorrhoeae; Neisseria gonorrhoeae, N. gonorrhoeae MMX 6921 (CIP-R), broth microdilution, read-out: MIC): 1 µg/mL (≈ 3.18 µM) | MIC (Neisseria gonorrhoeae; Neisseria gonorrhoeae, N. gonorrhoeae MMX 6938 (CIP-S), broth microdilution, read-out: MIC): 2 µg/mL (≈ 6.36 µM) | MIC (Neisseria gonorrhoeae; Neisseria gonorrhoeae, N. gonorrhoeae MMX 10409 (CIP-R), broth microdilution, read-out: MIC): 2 µg/mL (≈ 6.36 µM) | MIC (Neisseria gonorrhoeae; Neisseria gonorrhoeae, N. gonorrhoeae MMX 10410 (CIP-S), broth microdilution, read-out: MIC): 2 µg/mL (≈ 6.36 µM) | MIC (Neisseria gonorrhoeae; Neisseria gonorrhoeae, N. gonorrhoeae MMX 10447 (CIP-S), broth microdilution, read-out: MIC): 1 µg/mL (≈ 3.18 µM) | MIC (Neisseria gonorrhoeae; Neisseria gonorrhoeae, N. gonorrhoeae MMX 10450 (CIP-S), broth microdilution, read-out: MIC): 0.5 µg/mL (≈ 1.59 µM) | MIC (Neisseria gonorrhoeae; Neisseria gonorrhoeae, N. gonorrhoeae MMX 10452 (CIP-R), broth microdilution, read-out: MIC): 2 µg/mL (≈ 6.36 µM) | MIC (Neisseria gonorrhoeae; Neisseria gonorrhoeae, N. gonorrhoeae MMX 10454 (CIP-R), broth microdilution, read-out: MIC): 1 µg/mL (≈ 3.18 µM) | MIC (Neisseria gonorrhoeae; Neisseria gonorrhoeae, NCTC13477, N. gonorrhoeae NCTC 13477 (WHO F; CIP-S, AZI MIC […]), broth microdilution, read-out: MIC): 0.5 µg/mL (≈ 1.59 µM) | MIC (Neisseria gonorrhoeae; Neisseria gonorrhoeae, NCTC13478, N. gonorrhoeae NCTC 13478 (WHO G; CIP-I, AZI MIC […]), broth microdilution, read-out: MIC): 2 µg/mL (≈ 6.36 µM) | MIC (Neisseria gonorrhoeae; Neisseria gonorrhoeae, NCTC13479, N. gonorrhoeae NCTC 13479 (WHO K; CIP-R, AZI MIC […]), broth microdilution, read-out: MIC): 2 µg/mL (≈ 6.36 µM) | MIC (Neisseria gonorrhoeae; Neisseria gonorrhoeae, NCTC13480, N. gonorrhoeae NCTC 13480 (WHO L; CIP-R, AZI MIC 0.5), broth microdilution, read-out: MIC): 0.5 µg/mL (≈ 1.59 µM) | MIC (Neisseria gonorrhoeae; Neisseria gonorrhoeae, NCTC13481, N. gonorrhoeae NCTC 13481 (WHO M; CIP-R, AZI MIC […]), broth microdilution, read-out: MIC): 1 µg/mL (≈ 3.18 µM) | MIC (Neisseria gonorrhoeae; Neisseria gonorrhoeae, NCTC13482, N. gonorrhoeae NCTC 13482 (WHO N; CIP-R, AZI MIC […]), broth microdilution, read-out: MIC): 2 µg/mL (≈ 6.36 µM) | MIC (Neisseria gonorrhoeae; Neisseria gonorrhoeae, NCTC13483, N. gonorrhoeae NCTC 13483 (WHO O; CIP-S, AZI MIC […]), broth microdilution, read-out: MIC): 2 µg/mL (≈ 6.36 µM) | MIC (Neisseria gonorrhoeae; Neisseria gonorrhoeae, NCTC13484, N. gonorrhoeae NCTC 13484 (WHO P; CIP-S, AZI MIC 4), broth microdilution, read-out: MIC): > 32 µg/mL | MIC (Neisseria gonorrhoeae; Neisseria gonorrhoeae, NCTC13817, N. gonorrhoeae NCTC 13817 (WHO U; CIP-S, AZI MIC 4), broth microdilution, read-out: MIC): 1 µg/mL (≈ 3.18 µM) | MIC (Neisseria gonorrhoeae; Neisseria gonorrhoeae, NCTC13818, N. gonorrhoeae NCTC 13818 (WHO V; CIP-R, AZI MIC >256), broth microdilution, read-out: MIC): 1 µg/mL (≈ 3.18 µM) | MIC (Neisseria gonorrhoeae; Neisseria gonorrhoeae, NCTC13819, N. gonorrhoeae NCTC 13819 (WHO W; CIP-R, AZI MIC 0.5), broth microdilution, read-out: MIC): 1 µg/mL (≈ 3.18 µM) | MIC (Neisseria gonorrhoeae; Neisseria gonorrhoeae, NCTC13820, N. gonorrhoeae NCTC 13820 (WHO X; CRO-NS, CIP-R, AZI MIC 0.5), broth microdilution, read-out: MIC): 2 µg/mL (≈ 6.36 µM) | MIC (Neisseria gonorrhoeae; Neisseria gonorrhoeae, NCTC13821, N. gonorrhoeae NCTC 13821 (WHO Y; CIP-R, AZI MIC 1), broth microdilution, read-out: MIC): 1 µg/mL (≈ 3.18 µM) | MIC50 (Neisseria gonorrhoeae; Neisseria gonorrhoeae, 30 isolates of N. gonorrhoeae, broth microdilution, read-out: MIC50): 2 µg/mL (≈ 6.36 µM) | MIC90 (Neisseria gonorrhoeae; Neisseria gonorrhoeae, 30 isolates of N. gonorrhoeae, broth microdilution, read-out: MIC90): 2 µg/mL (≈ 6.36 µM) | MIC (Neisseria gonorrhoeae; Neisseria gonorrhoeae, 30 isolates of N. gonorrhoeae, broth microdilution, read-out: MIC Mode): 2 µg/mL (≈ 6.36 µM)
